In US20240173307A1, “MODULATORS OF THE INTEGRATED STRESS PATHWAY” (Calico Life Sciences LLC, priority 2017, published 2024):

System: HEK293T cells carrying the ATF4 luciferase reporter
Assay: ATF4-Luc assay (in vitro model of vanishing white matter disease)
Type: cell-based
Conditions: Homo sapiens, HEK-293T, 1 μg/mL tunicamycin, 7 hours
Summary of the method: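 Stable HEK293T line expressing firefly luciferase behind the human full-length ATF4 5′-UTR, grown in DMEM/10% FBS. Cells were co-treated with 1 μg/mL tunicamycin and 200 nM compound for 7 h. Luciferase luminescence was read as the output, and EC50 values were derived from it.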

| Compound | EC50 [nM] |
| --- | --- |
| O=C(COc1ccc(Cl)c(F)c1)NC12CCC(C(=O)Nc3ccc(OCC(F)(F)F)nc3)(CC1)CC2 [Compound 281, 4-[2-(4-chloro-3-fluorophenoxy)acetamido]-N-[6-(2,2,2-trifluoroethoxy)pyridin-3-yl]bicyclo[2.2.2]octane-1-carboxamide] | > 2000 |
| O=C(COc1ccc(Cl)c(F)c1)NC12CCC(C(=O)NCC(=O)c3ccc(Cl)c(F)c3)(CC1)[C@@H](O)C2 [Compound 326, (2S)-4-[2-(4-chloro-3-fluorophenoxy)acetamido]-N-[2-(4-chloro-3-fluorophenyl)-2-oxoethyl]-2-hydroxybicyclo[2.2.2]octane-1-carboxamide] | < 250 |
| O=C(COc1ccc(Cl)c(F)c1)NC12CC(C(=O)Nc3cc(CO)ccn3)(C1)C2 [Compound 313, 3-[2-(4-chloro-3-fluorophenoxy)acetamido]-N-[4-(hydroxymethyl)pyridin-2-yl]bicyclo[1.1.1]pentane-1-carboxamide] | 1000 to 2000 |
| O=C(COc1ccc(Cl)c(F)c1)NC12CCC(C(=O)Nc3ccc(C(F)(F)F)cc3)(CC1)OC2 [Compound 337, 4-[2-(4-chloro-3-fluorophenoxy)acetamido]-N-[4-(trifluoromethyl)phenyl]-2-oxabicyclo[2.2.2]octane-1-carboxamide] | < 250 |
| O=C(COc1ccc(Cl)c(F)c1)NC12CCC(C(=O)NCc3ccc(OC(F)F)cn3)(CC1)CC2 [Compound 265, 4-[2-(4-chloro-3-fluorophenoxy)acetamido]-N-{[5-(difluoromethoxy)pyridin-2-yl]methyl}bicyclo[2.2.2]octane-1-carboxamide] | < 250 |
| O=C(COc1ccc(Cl)c(Cl)c1)NC12CC(C(=O)Nc3ccncc3)(C1)C2 [Compound 296, 3-[2-(3,4-dichlorophenoxy)acetamido]-N-(pyridin-4-yl)bicyclo[1.1.1]pentane-1-carboxamide] | < 250 |
